From patent publication US8329904B2, “Azacyclic derivatives” (Hoffmann-La Roche Inc., priority 2009, dated 2012)
pIC50: −log10 of the molar value.

The compounds below were run against T1, human HSL (Homo sapiens, UniProt Q05469) (assay: Human Hormone-Sensitive Lipase (HSL) Enzyme Inhibition Assay). Details: colorimetric assay, 2,3-dimercapto-1-propanol tributyrate (DMPT) substrate, 37° C. for 20 minutes, absorbance at 405 nm; read-out: HSL hum IC50.
T1 construct: overlapping PCR to generate a full length human HSL ORF with a 3′-His6 tag; His6 (C); made in house; host or cells: High 5 insect cells (baculovirus, pFast-BAC)
T1 sequence (Q05469 1-1076): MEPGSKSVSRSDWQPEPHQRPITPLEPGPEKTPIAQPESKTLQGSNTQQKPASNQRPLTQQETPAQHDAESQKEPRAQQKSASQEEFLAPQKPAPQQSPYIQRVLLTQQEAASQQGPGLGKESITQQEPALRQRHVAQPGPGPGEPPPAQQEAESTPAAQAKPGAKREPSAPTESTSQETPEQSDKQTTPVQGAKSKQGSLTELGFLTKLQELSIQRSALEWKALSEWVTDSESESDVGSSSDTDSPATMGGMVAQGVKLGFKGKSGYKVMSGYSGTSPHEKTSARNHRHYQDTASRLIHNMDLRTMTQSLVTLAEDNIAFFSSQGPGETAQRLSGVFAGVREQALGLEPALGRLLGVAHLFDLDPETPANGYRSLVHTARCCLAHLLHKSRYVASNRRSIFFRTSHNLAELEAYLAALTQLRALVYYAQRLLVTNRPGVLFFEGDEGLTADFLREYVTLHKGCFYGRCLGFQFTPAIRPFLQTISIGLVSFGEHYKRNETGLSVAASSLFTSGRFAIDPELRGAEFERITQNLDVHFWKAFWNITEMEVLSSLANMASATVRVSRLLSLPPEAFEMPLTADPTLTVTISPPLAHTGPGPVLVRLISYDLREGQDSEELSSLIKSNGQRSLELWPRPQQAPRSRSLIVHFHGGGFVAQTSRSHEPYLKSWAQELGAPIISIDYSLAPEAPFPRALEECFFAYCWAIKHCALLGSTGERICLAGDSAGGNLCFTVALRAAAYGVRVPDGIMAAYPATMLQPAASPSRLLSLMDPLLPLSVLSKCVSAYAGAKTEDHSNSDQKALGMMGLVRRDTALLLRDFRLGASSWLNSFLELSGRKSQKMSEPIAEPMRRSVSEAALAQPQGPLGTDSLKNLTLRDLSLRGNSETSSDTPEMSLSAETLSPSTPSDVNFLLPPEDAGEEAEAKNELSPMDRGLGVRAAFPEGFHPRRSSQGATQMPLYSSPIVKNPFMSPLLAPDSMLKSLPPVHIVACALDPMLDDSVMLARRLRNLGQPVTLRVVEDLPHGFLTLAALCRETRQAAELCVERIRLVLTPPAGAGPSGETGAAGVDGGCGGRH
Format: biochemical
Experimental: Production of Human Full Length Hormone Sensitive Lipase-His^6
1) Cloning: cDNA was prepared from commercial human brain polyA-+ RNA and used as a template in overlapping PCR to generate a full length human HSL ORF with a 3′-His6 tag. This full length insert was cloned into the pFast-BAC vector and the DNA-sequence of several single clones was verified. DNA from a correct full length clone with the 3′His6 tag was used to transform the E. coli strain DH10BAC. Resulting bacmid DNA was used to generate a titered baculovirus stock for protein generation.
Cells were thawed. […] was done at 3×30 sec., Lubrol PX was added to 0.2% final concentration followed by stirring for 15 min. at 4° C. and centrifugation at 25 k×g, 60 min., 4° C. […] Supernatant was removed, the resin washed in the centrifuge vessel using 5 volumes of Base Buffer containing 0.2% Lubrol PX. Centrifugation was done again, then the supernatant discarded. The resin wass poured onto a 0.8 μm membrane in a disposable filter unit (Nalge 450-0080), and washed with 5 volumes of Base Buffer containing 0.2% Lubrol PX. It was then washed with 30 volumes of Base Buffer containing 60 mM imidazole pH 7.5 at 4° C. The protein was eluated with 5 volumes of 25 mM Tris-Cl, 300 mM NaCl, 200 mM imidazole, 10 mM 2-mercaptoethanol, pH 7.5 at 4° C. by tumbling resin with buffer end-over-end, 30 min., 4° C. The resin was captured on a 0.2 μm membrane disposable filter unit (Millipore SCGP U02 RE) and the eluate collected in the reservoir. The eluate was concentrated using a 30 k MWCO centrifugal filter device (Sartorius Vivascience Vivacell 100, VC1022), to 20 ml. It was then dialyzed overnight at 4° C., two times against 2 L of 10% glycerol, 25 mM Tris-Cl, 300 mM NaCl, 0.2 mM EDTA, 0.2 mM DTT, pH 7.5 at 4° C. The protein was filtered using a 0.22 μm disposable filter unit (Millipore SCGP00525). The protein concentration was calculated from absorbance at 280 nm, using 280=0.67 cm-1 mg-1. […] The protein was stored at −80° C.
Human Hormone-Sensitive Lipase (HSL) Enzyme Inhibition Assay:
HSL enzyme activity was measured by a colorimetric assay using 2,3-dimercapto-1-propanol tributyrate (Aldrich, St. Louis, Mo.) as a substrate. Typically, 1.5 mM 2,3-dimercapto-1-propanol tributyrate (DMPT) in 100 mM MOPS, pH 7.2, 0.2 mg/ml fatty acid-free BSA was prepared by sonication at 4° C. to homogenous suspension. Test compounds (2 mM stock in DMSO) were diluted 3 fold in series in DMSO. Compound solutions were diluted 24 fold in 1.5 mM DMPT containing solution and 18 ul per well was added to 384-well microplates (Corning Costar). Twelve microliters per well of human HSL (15 ug/ml) was added and the reaction mixture was incubated at 37° C. for 20 minutes. Six microliters of 12 mM dithio-bis-(2-nitrobenzoic acid) (DTNB) in DMSO plus 1.2% SDS and 0.6% Triton X-100 were added and the mixture was incubated at room temperature for 15 minutes. Product production was monitored by reading absorbance at 405 nm on an Envision Reader (PerkinElmer Life and Analytical Sciences, Shelton, Conn.).

| Structure (SMILES) | pIC50 |
| --- | --- |
| CC(C)(C)CS(=O)(=O)N1CCC2(CCN(c3ccc(OC(F)(F)F)cc3)C2=O)CC1 [Example 19, 8-(2,2-Dimethyl-propane-1-sulfonyl)-2-(4-trifluoromethoxy-phenyl)-2,8-diaza-spiro[4.5]decan-1-one] | 7.40 |
| CCc1ccc(N2CCC3(CCN(C(=O)CC(C)(C)C)CC3)C2=O)cc1 [Example 20, 8-(3,3-Dimethyl-butyryl)-2-(4-ethyl-phenyl)-2,8-diaza-spiro[4.5]decan-1-one] | 6.62 |
| CCc1ccc(N2CCC3(CCN(S(=O)(=O)N4CCOCC4)CC3)C2=O)cc1 [Example 21, 2-(4-Ethyl-phenyl)-8-(morpholine-4-sulfonyl)-2,8-diaza-spiro[4.5]decan-1-one] | 6.57 |
| CC(C)CS(=O)(=O)N1CCC2(CCN(c3ccc(OC(C)C)cc3)C2=O)CC1 [Example 23, 2-(4-Isopropoxy-phenyl)-8-(2-methyl-propane-1-sulfonyl)-2,8-diaza-spiro[4.5]decan-1-one] | 6.80 |
| CCc1ccc(N2CCC3(CCN(S(=O)(=O)CC(C)C)CC3)C2=O)cc1 [Example 24, 2-(4-Ethyl-phenyl)-8-(2-methyl-propane-1-sulfonyl)-2,8-diaza-spiro[4.5]decan-1-one] | 7.00 |
| O=C1N(c2ccc(OCC(F)(F)F)cc2)CCC12CCN(S(=O)(=O)c1ccccc1)CC2 [Example 26, 8-Benzenesulfonyl-2-[4-(2,2,2-trifluoro-ethoxy)-phenyl]-2,8-diaza-spiro[4.5]decan-1-one] | 7.22 |
| O=C1N(c2ccc(OC(F)(F)F)cc2)CCC12CCN(S(=O)(=O)c1cccs1)CC2 [Example 28, 8-(Thiophene-2-sulfonyl)-2-(4-trifluoromethoxy-phenyl)-2,8-diaza-spiro[4.5]decan-1-one] | 7.40 |
| CCc1ccc(N2CCC3(CCN(S(=O)(=O)c4cccs4)CC3)C2=O)cc1 [Example 29, 2-(4-Ethyl-phenyl)-8-(thiophene-2-sulfonyl)-2,8-diaza-spiro[4.5]decan-1-one] | 7.30 |
| CCc1ccc(N2CCC3(CCN(S(=O)(=O)CCC(F)(F)F)CC3)C2=O)cc1 [Example 30, 2-(4-Ethyl-phenyl)-8-(3,3,3-trifluoro-propane-1-sulfonyl)-2,8-diaza-spiro[4.5]decan-1-one] | 6.44 |
| CCCc1ccc(N2CCC3(CCN(C(=O)CC(C)(C)C)CC3)C2=O)cc1 [Example 31, 8-(3,3-Dimethyl-butyryl)-2-(4-propyl-phenyl)-2,8-diaza-spiro[4.5]decan-1-one] | 7.10 |
| CCc1ccc(N2CCC3(CCN(S(=O)(=O)CC(C)(C)C)CC3)C2=O)cc1 [Example 32, 8-(2,2-Dimethyl-propane-1-sulfonyl)-2-(4-ethyl-phenyl)-2,8-diaza-spiro[4.5]decan-1-one] | 7.10 |
| O=C1N(c2ccc(C3CC3)cc2)CCC12CCN(S(=O)(=O)c1ccccc1Cl)CC2 [Example 33, 8-(2-Chloro-benzenesulfonyl)-2-(4-cyclopropyl-phenyl)-2,8-diaza-spiro[4.5]decan-1-one] | 7.52 |
| CSc1ccc(N2CCC3(CCN(S(=O)(=O)c4ccccc4Cl)CC3)C2=O)cc1 [Example 34, 8-(2-Chloro-benzenesulfonyl)-2-(4-methylsulfanyl-phenyl)-2,8-diaza-spiro[4.5]decan-1-one] | 7.00 |
| CC(C)(C)CC(=O)N1CCC2(CC1)CCN(c1ccc(C3CC3)cc1)C2=O [Example 35, 2-(4-Cyclopropyl-phenyl)-8-(3,3-dimethyl-butyryl)-2,8-diaza-spiro[4.5]decan-1-one] | 6.77 |
| O=C1N(c2ccc(C3CC3)cc2)CCC12CCN(S(=O)(=O)c1cccs1)CC2 [Example 36, 2-(4-Cyclopropyl-phenyl)-8-(thiophene-2-sulfonyl)-2,8-diaza-spiro[4.5]decan-1-one] | 7.30 |
| O=C(CC1CCCC1)N1CCC2(CC1)CCN(c1ccc(C3CC3)cc1)C2=O [Example 37, 8-(2-Cyclopentyl-acetyl)-2-(4-cyclopropyl-phenyl)-2,8-diaza-spiro[4.5]decan-1-one] | 6.66 |
| O=C1N(c2ccc(C3CC3)cc2)CCC12CCN(S(=O)(=O)Cc1ccccc1)CC2 [Example 38, 2-(4-Cyclopropyl-phenyl)-8-phenylmethanesulfonyl-2,8-diaza-spiro[4.5]decan-1-one] | 7.22 |
| CCCS(=O)(=O)N1CCC2(CCN(c3ccc(C4CC4)cc3)C2=O)CC1 [Example 39, 2-(4-Cyclopropyl-phenyl)-8-(propane-1-sulfonyl)-2,8-diaza-spiro[4.5]decan-1-one] | 6.70 |
| CC(C)(C)CC(=O)N1CCC2(CC1)CCN(c1ccc(CC(F)(F)F)cc1)C2=O [Example 40, 8-(3,3-Dimethyl-butyryl)-2-[4-(2,2,2-trifluoro-ethyl)-phenyl]-2,8-diaza-spiro[4.5]decan-1-one] | 7.10 |
| CCc1ccc(N2CCC3(CCN(S(=O)(=O)c4ccc(C)s4)CC3)C2=O)cc1 [Example 41, 2-(4-Ethyl-phenyl)-8-(5-methyl-thiophene-2-sulfonyl)-2,8-diaza-spiro[4.5]decan-1-one] | 7.22 |
| Cc1ccc(S(=O)(=O)N2CCC3(CCN(c4ccc(OC(F)(F)F)cc4)C3=O)CC2)s1 [Example 42, 8-(5-Methyl-thiophene-2-sulfonyl)-2-(4-trifluoromethoxy-phenyl)-2,8-diaza-spiro[4.5]decan-1-one] | 7.40 |
| CCC(C)c1ccc(N2CCC3(CCN(S(=O)(=O)c4cccs4)CC3)C2=O)cc1 (stereo not drawn) [Example 43, 2-(4-sec-Butyl-phenyl)-8-(thiophene-2-sulfonyl)-2,8-diaza-spiro[4.5]decan-1-one] | 7.40 |
| CCC(C)c1ccc(N2CCC3(CCN(S(=O)(=O)N4CCOCC4)CC3)C2=O)cc1 (stereo not drawn) [Example 44, 2-(4-sec-Butyl-phenyl)-8-(morpholine-4-sulfonyl)-2,8-diaza-spiro[4.5]decan-1-one] | 7.00 |
| CCC(C)c1ccc(N2CCC3(CCN(S(=O)(=O)c4ccc(C)s4)CC3)C2=O)cc1 (stereo not drawn) [Example 45, 2-(4-sec-Butyl-phenyl)-8-(5-methyl-thiophene-2-sulfonyl)-2,8-diaza-spiro[4.5]decan-1-one] | 7.22 |
